Experimental data taken from patent US20170239289A1, “TREATMENT OF INFLAMMATION, RESPIRATORY TRACT INFECTIONS AND CYSTIC FIBROSIS” (Advanced Inhalation Therapies (AIT) Ltd., priority 2014, published 2017).

Assays:
C-reactive protein (CRP) = experiment: Example 4: CRP levels over time; assay type: in vivo, human; settings: three subjects with systemic inflammation (CRP greater than 5 mg/L) on Day 1
Procedure: (§1) In addition to their standard care, subjects were administered three 30-minute inhalations per day of 160 ppm NO (with O2/air) for 10 working days (i.e., 5 days on treatment, 2 days off treatment, 5 days on treatment, for a total of 10 treatment days and 30 inhalations).
(§2) Secondary Endpoints—Efficacy: • Comparison of FEV1 improvement before and after NO treatment Observational Endpoints: • To determine the reduction in bacterial and fungal sputum load during each week of NO treatment compared to bacterial sputum load before NO treatment • Assess the improvement of lung function indices during and after NO intermittent inhalation treatment as determined by spirometry (i.e., FVC, FEV1, FEV1/FVC, forced expiratory flow 25% to 75% (FEF 25-75)) • Evaluate C-reactive protein (CRP) levels over time • Number of subjects with study drug related bleeding at any time point

[1] = test system: human subjects diagnosed with, or suffering from CF; experiment: Example 1: open-label Phase 2 CF study, 160 ppm NO 30 min 3x daily, 5 days/week, 2 weeks; safety monitoring; assay type: in vivo
Procedure: (§3) NO was administered via inhalation to nine clinically stable human subjects diagnosed with, or suffering from CF from two medical centers. Patients received three daily 30-minute treatments of 160 ppm NO with at least 3.5 hours between treatments, for 5 days per week over a two-weeks time period.
Safety parameters, including NO and nitrogen dioxide (NO2 via NO2^−/NO3^−) concentrations, inhaled fraction of inspired oxygen (FiO2), methemoglobin level (SpMet, or “% MetHb”), and oxyhemoglobin (oxygen) saturation (SpO2 or SaO2), were continuously monitored using a noninvasive pulse-oximetry device RAD-57™ or RAD-87™ by Masimo Irvine, Calif. These devices also monitor Perfusion Index (PI), Respiration Rate (RRa), Total Hemoglobin (SpHb), Carboxyhemoglobin (SpCO), Oxygen Content (SpOC) and Pleth Variability Index (PVI®). Vital signs, including blood pressure, pulse, and respiratory rate were also closely monitored.

[2] = test system: human subjects diagnosed with, or suffering from CF; experiment: Example 1: FEV1 in CF subjects treated with 160 ppm NO; assay type: in vivo
Procedure: as §3
(§4) Preliminary efficacy measures included determination of microbial density in sputum and measurements of forced exhaled volume at 1 second (FEV1). Inflammation associated with C-reactive protein (CRP) levels was assessed as a secondary outcome measure. Other inflammation biomarkers, such as interleukins, were also monitored (data not shown).

[3] = test system: human subjects diagnosed with cystic fibrosis; experiment: Example 4: lung function indices by spirometry; assay type: in vivo
Procedure: as §1, §2
The Signed rank test for two means was applied for analyzing changes from baseline in continuous parameters: • FEV1% • Specific bacterial colonization (i.e., S. aureus, P. aeruginosa)

[4] = test system: methicillin-sensitive S. aureus (MSSA); experiment: Example 1: microbial density in sputum (CFU) during NO inhalation; assay type: in vivo, Staphylococcus aureus; settings: Patient 3 (CFSCH03)
Procedure: as §3, §4
Bacterial load was measured for exemplary, non-limiting selection of species that included, P. alcaligenes, methicillin-sensitive Staphylococcus aureus (MSSA), Achromobacter spp., A. fumigates, non-mucoid P. aeruginosa and mucoid P. aeruginosa.

S. aureus (MSSA) = experiment: Example 4: bacterial and fungal sputum load; assay type: in vivo, Staphylococcus aureus
Procedure: as §1, §2
Results of the bacterial and fungal sputum load analysis were highly variable, and due to limitations of the sampling and testing technique, must be interpreted with caution. Microbiology results were recorded from Day 1 to end of follow-up, for all samples taken during the study. In order for NO therapy to be efficient, a minimal exposure of the microbial population to NO for the whole duration of the study is required. […] Thus, data was analyzed only for cultures with positive results on Day 1. Furthermore, samples from 2 subjects (SO-01 and SO-02) were not analyzed by the central laboratory. A summary of the bacterial and fungal sputum results at Day 1 and Day 9 is presented according to subject in Table 18.

[5] = Follow-up 2 (2 weeks after Day 10), n=9

[N]=O [NO, nitric oxide]
CRP levels from Day 1 to Day 10 (C-reactive protein (CRP)): decreased
Average MetHb levels post treatment (mean±SD) ([1]; 9 subjects, 10 days of treatment): 2.4%
Oxygen saturation post treatment ([1]; all 9 subjects): more than 92%
MetHb levels throughout the trial (safety limit) ([1]; all subjects): < 5%
Changes in vital signs ([1]; during the study): no clinically significant changes in vital signs
Serious adverse events ([1]; during the study): No serious adverse events
FEV1 reduction ([2]; one patient, returned to initial levels after 2 weeks): 11%
changes in FEV1 values ([2]; two of 9 subjects): no significant changes
FEF 25-75% Absolute, Mean ([3]; Day 1, n=9): 30.000%
FEF 25-75% Absolute, Median ([3]; Day 1, n=9): 27.000%
FEF 25-75 Absolute, Mean ([3]; Day 1, n=9): 1.151 L/s
FEF 25-75 Absolute, Median ([3]; Day 1, n=9): 1.090 L/s
FEV1/FVC, Mean ([3]; Day 1, n=9): 68.778%
FEV1/FVC, Median ([3]; Day 1, n=9): 69.000%
FEV1 Absolute, Mean ([3]; Day 1, n=9): 1.871 L
FEV1 Absolute, Median ([3]; Day 1, n=9): 1.700 L
FEV1 Predicted, Mean ([3]; Day 1, n=9): 62.222%
FEV1 Predicted, Median ([3]; Day 1, n=9): 64.000%
FVC Absolute, Mean ([3]; Day 1, n=9): 2.756 L
FVC Absolute, Median ([3]; Day 1, n=9): 2.360 L
FVC Predicted, Mean ([3]; Day 1, n=9): 79.889%
FVC Predicted, Median ([3]; Day 1, n=9): 90.000%
FEF 25-75% Absolute, Mean ([3]; Day 10, n=9): 28.111%
FEF 25-75% Absolute, Median ([3]; Day 10, n=9): 22.000%
FEF 25-75 Absolute, Mean ([3]; Day 10, n=9): 1.090 L/s
FEF 25-75 Absolute, Median ([3]; Day 10, n=9): 0.880 L/s
FEV1/FVC, Mean ([3]; Day 10, n=9): 65.111%
FEV1/FVC, Median ([3]; Day 10, n=9): 66.000%
FEV1 Absolute, Mean ([3]; Day 10, n=9): 1.833 L
FEV1 Absolute, Median ([3]; Day 10, n=9): 1.610 L
FEV1 Predicted, Mean ([3]; Day 10, n=9): 60.444%
FEV1 Predicted, Median ([3]; Day 10, n=9): 59.000%
FVC Absolute, Mean ([3]; Day 10, n=9): 2.759 L
FVC Absolute, Median ([3]; Day 10, n=9): 2.340 L
FVC Predicted, Mean ([3]; Day 10, n=9): 79.556%
FVC Predicted, Median ([3]; Day 10, n=9): 84.000%
FEF 25-75% Absolute, Mean [3, 5]: 29.667%
FEF 25-75% Absolute, Median [3, 5]: 23.000%
FEF 25-75 Absolute, Mean [3, 5]: 1.118 L/s
FEF 25-75 Absolute, Median [3, 5]: 0.910 L/s
FEV1/FVC, Mean [3, 5]: 66.000%
FEV1/FVC, Median [3, 5]: 65.000%
FEV1 Absolute, Mean [3, 5]: 1.852 L
FEV1 Absolute, Median [3, 5]: 1.630 L
FEV1 Predicted, Mean [3, 5]: 62.889%
FEV1 Predicted, Median [3, 5]: 60.000%
FVC Absolute, Mean [3, 5]: 2.786 L
FVC Absolute, Median [3, 5]: 2.390 L
FVC Predicted, Mean [3, 5]: 81.889%
FVC Predicted, Median [3, 5]: 85.000%
mean (SD) FEV1 change ([3]; from Day 1 to Day 10, N=9, p=0.992): −0.11%
Lung function indices over time ([3]; throughout the study): no clinically significant changes
MSSA CFU counts [4]: elimination
S. aureus (MSSA), % change from Day 1 to Day 9 (S. aureus (MSSA); Subject SC-03): −100.0%
S. aureus (MSSA) sputum load (S. aureus (MSSA); Subject SC-03, Day 1): 29.5 CFU/mL × 10^−4
S. aureus (MSSA) sputum load (S. aureus (MSSA); Subject SC-03, Day 9): 0 CFU/mL × 10^−4
S. aureus (MSSA), % change from Day 1 to Day 9 (S. aureus (MSSA); Subject SO03): +27.6%
S. aureus (MSSA) sputum load (S. aureus (MSSA); Subject SO03, Day 1): 67.0 CFU/mL × 10^−4
S. aureus (MSSA) sputum load (S. aureus (MSSA); Subject SO03, Day 9): 85.5 CFU/mL × 10^−4
